Assay results published in US6593480B2 (Abbott Laboratories, priority 1999, dated 2003).

Target: T1, Human glucocorticoid receptors (Homo sapiens, UniProt P04150)
T1 construct: made in house; host or cells: Sf9 insect cells, recombinant baculovirus (BAC-TO-BAC)
T1 sequence (P04150 1-777): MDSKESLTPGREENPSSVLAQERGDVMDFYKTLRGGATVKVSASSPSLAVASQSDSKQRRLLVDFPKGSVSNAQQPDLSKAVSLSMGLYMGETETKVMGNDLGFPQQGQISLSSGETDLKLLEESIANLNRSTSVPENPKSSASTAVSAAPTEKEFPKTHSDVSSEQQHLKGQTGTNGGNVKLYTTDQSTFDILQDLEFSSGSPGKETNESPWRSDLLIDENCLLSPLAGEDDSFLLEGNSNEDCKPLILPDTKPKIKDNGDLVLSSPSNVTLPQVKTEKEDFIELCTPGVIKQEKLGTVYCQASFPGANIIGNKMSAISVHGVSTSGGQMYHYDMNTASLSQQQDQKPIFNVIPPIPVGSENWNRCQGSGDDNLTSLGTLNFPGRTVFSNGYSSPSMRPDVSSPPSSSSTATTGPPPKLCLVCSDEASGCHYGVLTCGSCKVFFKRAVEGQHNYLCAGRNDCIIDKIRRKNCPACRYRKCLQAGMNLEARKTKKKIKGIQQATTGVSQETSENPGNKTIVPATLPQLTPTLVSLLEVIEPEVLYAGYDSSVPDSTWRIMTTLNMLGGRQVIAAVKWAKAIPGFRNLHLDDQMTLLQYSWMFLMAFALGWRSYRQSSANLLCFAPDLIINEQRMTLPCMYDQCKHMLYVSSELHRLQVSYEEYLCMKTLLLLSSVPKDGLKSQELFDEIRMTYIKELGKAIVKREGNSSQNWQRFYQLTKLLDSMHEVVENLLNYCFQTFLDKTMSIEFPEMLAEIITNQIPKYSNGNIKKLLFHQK
Test: Radioligand filter binding assay, displacement of 3(H)-dexamethasone from human glucocorticoid receptor cytosol
Conditions: 1.7 μM test compound, inhibition of 3(H)-dex binding to hGR; for inhibition at 1.7 µM: read-out: GR BINDING (% Inhibition @ 1.7 μM)

| SMILES | inhibition at 1.7 µM [%] | GR BINDING (% Inhibition @ 1.7 μM) [%] |
| --- | --- | --- |
| COc1cccc2c1-c1ccc(CCN)cc1C(c1ccccc1)O2 (centres unmarked) [Example 19, (1-methoxy-6-phenyl-6H-dibenzo(b,d)pyran-8-yl)ethylamine] | 66 | – |
| COc1cccc2c1-c1ccc(NCC3CC3)cc1C(c1ccccc1)O2 (centres unmarked) [Example 20, (1-methoxy-6-phenyl-6H-dibenzo(b,d)pyran-8-yl)cyclopropylmethylamine] | 54.4 | – |
| COc1cccc2c1-c1ccc(NC(=O)C(F)(F)F)cc1C(c1ccccc1)O2 (centres unmarked) [Example 22, (1-methoxy-6-phenyl-6H-dibenzo(b,d)pyran-8-yl)trifluoroacetamide] | 87.9 | – |
| COc1cccc2c1-c1ccc(NS(C)(=O)=O)cc1[C@@H](c1ccccc1)O2 [Example 23, 6R-(1-methoxy-6-phenyl-6H-dibenzo(b,d)pyran-8-yl)methanesulfonamide] | – | 36.9 |
| CCCN(C)c1ccc(C2Oc3cccc(OC(F)F)c3-c3ccc(N)c(Br)c32)cc1 (centres unmarked) [Example 29, (1-difluoromethoxy-6-(4-(N-propyl-N-methylamino)phenyl)-7-bromo-6H-dibenzo(b,d)pyran-8-yl)-amine] | 55 | – |
| COc1cccc2c1-c1ccc(NS(C)(=O)=O)cc1C(c1cccc(O)c1)O2 (centres unmarked) [Example 34, (1-methoxy-6-(3-hydroxy)phenyl-6H-dibenzo(b,d)pyran-8-yl)-methanesulfonamide] | – | 81.6 |
| CC(=O)c1cccc2c1-c1ccc(NS(C)(=O)=O)cc1C(c1ccccc1)O2 (centres unmarked) [Example 38] | 58.9 | – |
| CCOC(=O)CCC1Oc2cccc(OC)c2-c2ccc(NS(C)(=O)=O)cc21 (centres unmarked) [Example 46] | 84.6 | – |
| COc1cccc2c1-c1ccc(NS(C)(=O)=O)cc1C(Cc1cccc(C#N)c1)O2 (centres unmarked) [Example 49] | 75.1 | – |
| COCCNC(=O)c1cccc(C2Oc3cccc(OC)c3-c3ccc(NS(C)(=O)=O)cc32)c1 (centres unmarked) [Example 64, (1-methoxy-6-(3-(2-methoxyethyl)aminocarbonyl)phenyl-6H-dibenzo(b,d)pyran-8-yl)-methanesulfonamide] | – | 44.3 |
| COc1cc(C)cc2c1-c1ccc(NS(C)(=O)=O)cc1C(c1ccccc1)O2 (centres unmarked) [Example 67, (1-methoxy-3-methyl-6-phenyl-6H-dibenzo(b,d)pyran-8-yl)methanesulfonamide] | 49.3 | – |
| COc1cccc2c1-c1ccc(CS(N)(=O)=O)cc1C(C1CCCCC1=O)O2 (centres unmarked) [Example 72, (1-methoxy-6-(2-(1-oxocyclohexyl))-6H-dibenzo(b,d)pyran-8-yl)methanesulfonamide] | – | 58.8 |
| C=CCOc1cccc2c1-c1ccc(NS(C)(=O)=O)cc1C(c1ccccc1)O2 (centres unmarked) [Example 78, N-[1-(allyloxy)-6-phenyl-6H-benzo[c]chromen-8-yl]methanesulfonamide] | 77.9 | – |
| CCOC(=O)CCCCCC1Oc2cccc(OC)c2-c2ccc(NS(C)(=O)=O)cc21 (centres unmarked) [Example 79, ethyl 6-{1-methoxy-8-[(methylsulfonyl)amino]-6H-benzo[c]chromen-6-yl}hexanoate] | 66.1 | – |
| COc1cccc2c1-c1ccc(NS(C)(=O)=O)cc1C(Cc1cc(F)cc(F)c1)O2 (centres unmarked) [Example 85, N-[6-(3,5-difluorobenzyl)-1-methoxy-6H-benzo[c]chromen-8-yl]methanesulfonamide] | 81.6 | – |
| COc1cccc2c1-c1ccc(NS(C)(=O)=O)cc1C(/C=C/c1ccccc1)O2 (centres unmarked) [Example 89, N-{1-methoxy-6-[(E)-2-phenylethenyl]-6H-benzo[c]chromen-8-yl}methanesulfonamide] | 86.1 | – |
| COc1cccc2c1-c1ccc(NS(C)(=O)=O)cc1C(C#N)O2 (centres unmarked) [Example 90, N-(6-cyano-1-methoxy-6H-benzo[c]chromen-8-yl)methanesulfonamide] | 55.1 | – |
| CCOC(=O)/C=C/COc1cccc(C2Oc3cccc(OC)c3-c3ccc(NS(C)(=O)=O)cc32)c1 (centres unmarked) [Example 94, ethyl (2E)-4-(3-{1-methoxy-8-[(methylsulfonyl)amino]-6H-benzo[c]chromen-6-yl}phenoxy)-2-butenoate] | 79.6 | – |

| SMILES | inhibition at 1.7 µM [%] | GR BINDING (% Inhibition @ 1.7 μM) [%] |
| --- | --- | --- |
| COc1cccc2c1-c1ccc(NS(C)(=O)=O)cc1C(c1ccc(/C=C/c3ccccc3)s1)O2 (centres unmarked) [Example 101, N-(1-methoxy-6-{5-[(E)-2-phenylethenyl]-2-thienyl}-6H-benzo[c]chromen-8-yl)methanesulfonamide] | 91.3 | – |
| CS(=O)(=O)Nc1ccc2c(c1)C(c1ccccc1)Oc1cccc(CO)c1-2 (centres unmarked) [Example 104, N-[1-(hydroxymethyl)-6-phenyl-6H-benzo[c]chromen-8-yl]methanesulfonamide] | 86.8 | – |
| C=CCOc1ccc2c(c1OC)-c1ccc(NS(C)(=O)=O)cc1C(c1ccccc1)O2 (centres unmarked) [Example 105, N-[2-(allyloxy)-1-methoxy-6-phenyl-6H-benzo[c]chromen-8-yl]methanesulfonamide] | 83.5 | – |
| COCCOCOc1ccc2c(c1OC)-c1ccc(NS(C)(=O)=O)cc1C(c1ccccc1)O2 (centres unmarked) [Example 106, N-{1-methoxy-2-[(2-methoxyethoxy)methoxy]-6-phenyl-6H-benzo[c]chromen-8-yl}methanesulfonamide] | 42.7 | – |
| COc1cccc2c1-c1ccc(NS(C)(=O)=O)cc1C(c1cccc(N(C)C(C)=O)c1)O2 (centres unmarked) [Example 110, N-(3-{1-methoxy-8-[(methylsulfonyl)amino]-6H-benzo[c]chromen-6-yl}phenyl)-N-methylacetamide] | 74.8 | – |
| C=CCCCc1cccc(C2Oc3cccc(OC)c3-c3ccc(NS(C)(=O)=O)cc32)c1 (centres unmarked) [Example 111, N-{1-nethoxy-6-[3-(4-pentenyl)phenyl]-6H-benzo[c]chromen-8-yl}methanesulfonamide] | – | 87.4 |
| COc1cccc2c1-c1ccc(NS(C)(=O)=O)cc1C(c1cccc(CCCC#N)c1)O2 (centres unmarked) [Example 112, N-{6-[3-(3-cyanopropyl)phenyl]-1-methoxy-6H-benzo[c]chromen-8-yl}methanesulfonamide] | 91.7 | – |
| COc1cccc2c1-c1ccc(NS(C)(=O)=O)cc1C(c1cccc(CCCCC#N)c1)O2 (centres unmarked) [Example 113, N-{6-[3-(4-cyanobutyl)phenyl]-1-methoxy-6H-benzo[c]chromen-8-yl}methanesulfonamide] | 87.7 | – |
| CCOC(=O)CCCc1cccc(C2Oc3cccc(OC(F)F)c3-c3ccc(NS(C)(=O)=O)cc32)c1 (centres unmarked) [Example 115, ethyl 4-(3-{1-(difluoromethoxy)-8-[(methylsulfonyl)amino]-6H-benzo[c]chromen-6-yl}phenyl)butanoate] | 83.5 | – |
| CS(=O)(=O)Nc1ccc2c(c1)C(c1cccc(CCCC(=O)O)c1)Oc1cccc(OC(F)F)c1-2 (centres unmarked) [Example 121, 4-(3-{1-(difluoromethoxy)-8-[(methylsulfonyl)amino]-6H-benzo[c]chromen-6-yl}phenyl)butanoic acid] | 76.6 | – |
| COc1cccc2c1-c1ccc(NS(C)(=O)=O)cc1C(c1cccc(-c3ccc(C(=O)O)cc3)c1)O2 (centres unmarked) [Example 122, 3′-{1-methoxy-8-[(methylsulfonyl)amino]-6H-benzo[c]chromen-6-yl}[1,1′-biphenyl]-4-carboxylic acid] | 63.8 | – |
| C[Si](C)(C)CCCc1cccc(C2Oc3cccc(OC(F)F)c3-c3ccc(NS(C)(=O)=O)cc32)c1 (centres unmarked) [Example 134, N-(1-(difluoromethoxy)-6-{3-[3-(trimethylsilyl)propyl]phenyl}-6H-benzo[c]chromen-8-yl)methanesulfonamide] | 88.8 | – |
| CCOC(=O)C(C)CCCc1cccc(C2Oc3cccc(OC(F)F)c3-c3ccc(NS(C)(=O)=O)cc32)c1 (centres unmarked) [Example 135, ethyl 5-(3-{1-(difluoromethoxy)-8-[(methylsulfonyl)amino]-6H-benzo[c]chromen-6-yl}phenyl)-2-methylpentanoate] | 83.7 | – |
| COc1cccc2c1-c1ccc(NS(C)(=O)=O)cc1C(c1cccc(Oc3ccc(C(C)=O)cc3)c1)O2 (centres unmarked) [Example 140, N-{6-[3-(4-acetylphenoxy)phenyl]-1-methoxy-6H-benzo[c]chromen-8-yl}methanesulfonamide] | 84.1 | – |
| COCCCCCCc1cccc(C2Oc3cccc(OC(F)F)c3-c3ccc(NS(C)(=O)=O)cc32)c1 (centres unmarked) [Example 141, N-{1-(difluoromethoxy)-6-[3-(6-methoxyhexyl)phenyl]-6H-benzo[c]chromen-8-yl}methanesulfonamide] | 93.6 | – |
| COc1cccc2c1-c1ccc(NS(C)(=O)=O)cc1C(c1cccc(CCCC(=O)N3CCCCC3)c1)O2 (centres unmarked) [Example 142, N-(1-methoxy-6-{3-[4-oxo-4-(1-piperidinyl)butyl]phenyl}-6H-benzo[c]chromen-8-yl)methanesulfonamide] | 78.2 | – |
| COc1ccc(S(=O)(=O)N(C)c2cccc(C3Oc4cccc(OC)c4-c4ccc(NS(C)(=O)=O)cc43)c2)cc1 (centres unmarked) [Example 148, 4-methoxy-N-(3-{1-methoxy-8-[(methylsulfonyl)amino]-6H-benzo[c]chromen-6-yl}phenyl)-N-methylbenzenesulfonamide] | 82.7 | – |
